The values that follow come from patent US4725600A, “Pyrimidine compounds having activity as a cardiotonic anti-hypertensive cerebrovascular vasodilator and anti-platelet aggregation agent” (Fujisawa Pharmaceutical Co., Ltd., priority 1984, dated 1988).

The test system of one assay is Mongrel dogs. Description: Cardiotonic activity (Test Method A): percentage of dp/dt max change in anesthetized mongrel dogs. Format: in vivo. The settings on record: Canis lupus familiaris, iv, injected into the femoral vein, read-out: dp/dt M.C. (percentage of dp/dt max changes). The procedure: Mongrel dogs of either sex were anesthetized with sodium pentobarbital, 35 mg/kg, i.p. The animals were allowed to breathe spontaneously. The left carotid artery was isolated and a catheter (USCI, #8F) filled with heparinized saline was inserted and advanced into the left ventricle. The catheter was connected to a pressure transducer (Nihonkohden, MPU-0.5A) to measure the left ventricular pressure, from which dp/dt max was derived by analog computing. To measure the systemic blood pressure the left femoral artery was cannulated. The blood pressure pulse was used to trigger a heart rate meter. Another catheter was positioned in the vena cave through right femoral vein for injection of drugs. Systemic blood pressure, left ventricular pressure, dp/dt max and heart rate were recorded simultaneously on a polygram (Nihonkohden, RJG-4008).
Test compound was dissolved in distilled water (0.2 ml/kg) or dimethyl sulfoxide (0.04 ml/kg) and injected into the femoral vein. The parameters after dosing were compared with those during the predosing period.
Test results were represented in terms of percentage of dp/dt max changes (dp/dt M.C.) calculated by following formula, and are shown in table 1. [formula]

For assay [1], the system named is Platelet rich plasma (PRP). As to the kind of experiment: Anti-platelet activity (Test Method B): inhibition of ADP- or collagen-induced aggregation in rabbit platelet rich plasma. The assay is classed as cell-based. To be noted: Oryctolagus cuniculus, 37° C. The procedure: Platelet rich plasma (PRP) which contains 6.5-7.5×10^8 platelet/ml was prepared from rabbit blood. To the 200 μl of PRP, 5 μl of calcium chloride (1 mM) and 50 μl of pH 7.4 Tris-acetate solution (5 mM) containing 120 mM NaCl and test compound were added successively, and then stirred for 2 min. at 37° C. To the solution 5 μl of adenosine diphosphate (ADP) (2.5 μM) or collagen (2.5 μg/ml) was added as an agregation inducer. Aggregation was measured by using an aggregometer (NKK HEMA TRACER 1).

A further assay concerns male Wistar rats (DOCA). Description: Antihypertensive activity (Test Method C): maximum decrease of blood pressure in DOCA-treated uninephrectomized rats. Format: in vivo. The settings on record: 1.0 mg/kg, oral; DOCA hypertensive rats, mean arterial pressure. The procedure:
Antihypertensive activity
Five-week old male Wistar rats were uninephrectomized under anesthesia. Deoxycorticosterone acetate (DOCA) (30 mg/kg), suspended in peanut oil, was injected subcutaneously twice a week and 1% saline was substituted for the drinking water. Animals with mean blood pressure 150-200 mmHg were used for experiment between 5 and 7 weeks after surgery.
The test compounds were administered orally. Blood pressure was measured at the femoral artery by means of a pressure transducer and recorded as electrically integrated values of mean arterial pressure.

Read-outs that look alike come from different tables or passages of the source.

With `COc1ccc(-c2cc(=Nc3c(C)cc(C)cc3C)n(C)c(N(C)Cc3ccccc3)n2)cc1OC` [Example 3, 3,4-dihydro-6-(3,4-dimethoxyphenyl)-3-methyl-2-(N-methyl-N-benzylamino)-4-(2,4,6-trimethylphenylimino)pyrimidine], the change in vivo at 0.1 mg/kg with Mongrel dogs came to 29%. The same measure, in the same setting: in the case of `COc1ccc(-c2cc(=Nc3c(C)cc(C)cc3C)n(C)c(Cl)n2)cc1OC` [Example 1, 2-chloro-3,4-dihydro-6-(3,4-dimethoxyphenyl)-3-methyl-4-(2,4,6-trimethylphenylimino)pyrimidine] it was 45%; in that of `COc1ccc(-c2cc(=Nc3c(C)cc(C)cc3C)n(C)c(C)n2)cc1OC` [Example 18, 3,4-dihydro-6-(3,4-dimethoxyphenyl)-2,3-dimethyl-4-(2,4,6-trimethylphenylimino)pyrimidine], 72%; in that of `CCn1c(C)nc(-c2ccc(OC)c(OC)c2)cc1=Nc1c(C)cc(C)cc1C` [Examples (17-12) and (19-12), 3,4-Dihydro-6-(3,4-dimethoxyphenyl)-3-ethyl-2-methyl-4-(2,4,6-trimethylphenylimino)pyrimidine], 87%. The same measure, in the same setting: in the case of `COc1ccc(-c2cc(=Nc3c(C)cc(C)cc3C)n(C)c3nnnn23)cc1OC` [Example 12, 4,5-dihydro-7-(3,4-dimethoxyphenyl)-4-methyl-5-(2,4,6-trimethylphenylimino)tetrazolo[1,5-a]pyrimidine] it was 152%; in that of `COc1ccc(-c2cc(=Nc3c(C)cc(C)cc3C)n(C)c3nncn23)cc1OC` [Example 11, 7,8-dihydro-5-(3,4-dimethoxyphenyl)-8-methyl-7-(2,4,6-trimethylphenylimino)-1,2,4-triazolo[4,3-a]pyrimidine], 60%. Turning to `COc1ccc(-c2cc(N(C)c3c(C)cc(C)cc3C)nc(C)n2)cc1OC` [Examples (17-6) and 20, 6-(3,4-dimethoxyphenyl)-2-methyl-4-[N-methyl-N-(2,4,6-trimethylphenyl)amino]pyrimidine], in the assay on Mongrel dogs, the change in vivo at 0.1 mg/kg was determined as 76%. With `COc1ccc(-c2cc(=Nc3c(C)cc(C)cc3C)n(C)cn2)cc1OC` [Example 2, 3,4-dihydro-6-(3,4-dimethoxyphenyl)-3-methyl-4-(2,4,6-trimethylphenylimino)pyrimidine], the change in vivo at 0.1 mg/kg in the assay with Mongrel dogs was 114%. For the same compound, the IC50 in assay [1] (aggregation inducer ADP (2.5 μM), pH 7.4, read-out: ID50, ADP) was found to be 260 nM; in assay [1] (aggregation inducer collagen (2.5 μg/ml), pH 7.4, read-out: ID50, Collagen), 360 nM. Besides, in the assay on male Wistar rats (DOCA), the “Effect Max (mean ratio of maximum decrease of blood pressure)” value is on record as 39.0%. In the case of `Nc1cc(-c2ccncc2)c[nH]c1=O` [Amrinone, 3-Amino-5-(4-pyridyl)-2(1H)-pyridinone, reference compound], the change in vivo at 0.1 mg/kg with Mongrel dogs was found to be 9%.
